Test results as given in ChEMBL document CHEMBL5728485, “Biaryloxy derivatives as TTX-S blockers” (2021).

Target: Sodium channel protein type 9 subunit alpha (Homo sapiens, UniProt Q15858)
Assay: EFS-FRET Assay: This screen is used to determine the effects of compounds on human Nav1.7 channels, utilizing electrical field stimulation (EFS) system in 96-well plate format on FDSS (Hamamatsu Photonics) platform. The changes of membrane potential are monitored with FRET dye pair, DiSBAC2(3) and PTS 18.

Sodium channel protein type 9 subunit alpha, sequence (Q15858 whole entry): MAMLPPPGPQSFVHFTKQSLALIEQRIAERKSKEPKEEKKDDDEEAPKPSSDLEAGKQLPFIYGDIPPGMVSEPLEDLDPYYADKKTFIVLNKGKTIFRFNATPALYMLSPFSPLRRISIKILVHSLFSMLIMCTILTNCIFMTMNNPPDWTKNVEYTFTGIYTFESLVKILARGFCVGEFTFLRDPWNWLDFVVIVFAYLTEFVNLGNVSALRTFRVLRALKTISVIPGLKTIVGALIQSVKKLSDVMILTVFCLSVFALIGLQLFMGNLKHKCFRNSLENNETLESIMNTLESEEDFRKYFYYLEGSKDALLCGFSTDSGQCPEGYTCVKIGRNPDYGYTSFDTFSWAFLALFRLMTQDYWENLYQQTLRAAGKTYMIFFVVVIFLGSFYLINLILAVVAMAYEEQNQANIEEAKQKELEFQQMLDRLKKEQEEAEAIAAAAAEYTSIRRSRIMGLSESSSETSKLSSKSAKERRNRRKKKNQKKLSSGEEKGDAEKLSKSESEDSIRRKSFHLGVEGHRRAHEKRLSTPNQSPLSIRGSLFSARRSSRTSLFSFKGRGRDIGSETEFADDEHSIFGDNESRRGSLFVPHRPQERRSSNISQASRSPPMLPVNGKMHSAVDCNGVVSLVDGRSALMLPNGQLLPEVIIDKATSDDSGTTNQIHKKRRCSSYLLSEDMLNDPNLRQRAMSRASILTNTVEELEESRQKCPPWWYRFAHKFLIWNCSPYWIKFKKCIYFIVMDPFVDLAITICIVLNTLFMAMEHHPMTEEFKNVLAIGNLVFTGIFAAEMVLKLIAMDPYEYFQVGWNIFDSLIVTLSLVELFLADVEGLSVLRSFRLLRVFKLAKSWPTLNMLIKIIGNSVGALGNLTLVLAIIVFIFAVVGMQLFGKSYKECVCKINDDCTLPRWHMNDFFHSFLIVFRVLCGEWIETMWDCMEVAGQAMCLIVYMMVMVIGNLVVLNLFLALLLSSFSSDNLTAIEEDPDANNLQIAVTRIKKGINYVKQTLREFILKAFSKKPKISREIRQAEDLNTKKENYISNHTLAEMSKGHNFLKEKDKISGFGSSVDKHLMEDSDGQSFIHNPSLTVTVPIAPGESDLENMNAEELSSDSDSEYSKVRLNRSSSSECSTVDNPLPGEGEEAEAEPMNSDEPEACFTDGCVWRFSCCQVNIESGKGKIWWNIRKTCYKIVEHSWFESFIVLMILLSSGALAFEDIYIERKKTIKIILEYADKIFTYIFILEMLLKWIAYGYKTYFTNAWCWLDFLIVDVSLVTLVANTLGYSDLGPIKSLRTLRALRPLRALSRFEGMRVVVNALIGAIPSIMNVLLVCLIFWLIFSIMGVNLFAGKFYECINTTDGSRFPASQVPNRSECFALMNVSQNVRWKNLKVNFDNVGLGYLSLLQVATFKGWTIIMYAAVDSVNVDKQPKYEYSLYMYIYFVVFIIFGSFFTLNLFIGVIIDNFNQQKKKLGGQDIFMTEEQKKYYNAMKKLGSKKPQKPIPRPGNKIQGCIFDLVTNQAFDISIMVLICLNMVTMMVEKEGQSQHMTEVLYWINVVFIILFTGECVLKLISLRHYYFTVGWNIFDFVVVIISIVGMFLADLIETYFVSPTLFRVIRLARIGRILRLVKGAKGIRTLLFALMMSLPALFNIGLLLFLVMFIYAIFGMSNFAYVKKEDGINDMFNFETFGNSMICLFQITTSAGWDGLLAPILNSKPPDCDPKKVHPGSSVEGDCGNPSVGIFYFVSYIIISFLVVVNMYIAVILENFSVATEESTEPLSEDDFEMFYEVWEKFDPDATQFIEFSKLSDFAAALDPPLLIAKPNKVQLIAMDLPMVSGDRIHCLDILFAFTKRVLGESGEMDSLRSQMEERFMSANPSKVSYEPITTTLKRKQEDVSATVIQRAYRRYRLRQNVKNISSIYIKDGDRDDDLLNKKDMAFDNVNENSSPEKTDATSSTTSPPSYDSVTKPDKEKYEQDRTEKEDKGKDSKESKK

SMILES	IC50
CS(=O)(=O)NC(=O)c1ccc(COc2cccc(-c3ccc(OCC4CC4)nc3)c2F)cc1	< 500 nM
Cc1nc(OCC2CC2)ccc1-c1cccc(OCc2ccc(C(=O)NS(C)(=O)=O)cc2)c1	< 500 nM
Cc1cc(OCC2CC2)ncc1-c1cc(F)cc(OCc2ccc(C(=O)NS(C)(=O)=O)cc2)c1	< 500 nM
Cc1cc(OCC2CC2)cnc1-c1cccc(OCc2ccc(C(=O)NS(C)(=O)=O)cc2F)c1	< 500 nM
CS(=O)(=O)NC(=O)c1ccc(COc2ccc(F)c(-c3cnc(OCC4CC4)c(Cl)c3)c2)c(F)c1	< 500 nM
CS(=O)(=O)NC(=O)c1ccc(COc2cccc(-c3cnc(OCC4CC4)cn3)c2)cc1	< 500 nM
Cc1ccc(OCc2ccc(C(=O)NS(=O)(=O)C3CC3)cc2F)cc1-c1ccc(OCC2CC2)nc1	< 500 nM
Cc1c(OCC2CC2)ccnc1-c1cc(F)cc(OCc2ccc(C(=O)NS(C)(=O)=O)cc2)c1	< 500 nM
CS(=O)(=O)NC(=O)c1ccc(COc2cc(-c3ccc(OCC4CC4)nc3)cc(C(F)(F)F)c2)cc1	< 500 nM
O=C(NS(=O)(=O)c1cccs1)c1cc(Cl)c(COc2cccc(-c3ccc(OCC4CC4)nc3)c2)cc1F	< 500 nM
Cc1c(OCC2CC2)ncnc1-c1cccc(OCc2ccc(C(=O)NS(C)(=O)=O)cc2)c1	< 500 nM
Cc1c(OCC2CC2)ncnc1-c1cc(F)cc(OCc2ccc(C(=O)NS(C)(=O)=O)cc2)c1	< 500 nM
O=C(NS(=O)(=O)C1CC1)c1ccc(COc2cccc(-c3ccc(OCC4CC4)nc3)c2)cc1	< 500 nM
CS(=O)(=O)NC(=O)c1ccc(COc2cccc(-c3cncc(OCC4CC4)n3)c2)cc1	< 500 nM
Cc1cc(OCC2CCC2)cnc1-c1cccc(OCc2ccc(C(=O)NS(C)(=O)=O)cc2)c1	< 500 nM
Cc1c(OCC2CC2)ncnc1-c1cccc(OCc2ccc(C(=O)NS(C)(=O)=O)cc2F)c1	< 500 nM
CS(=O)(=O)NC(=O)c1ccc(COc2cc(F)cc(-c3cc(OCC4CC4)ccn3)c2)cc1	< 500 nM
CS(=O)(=O)NC(=O)c1ccc(COc2cc(-c3ccc(OCC4CC4)nc3)cc(C3CC3)c2)cc1	< 500 nM
CS(=O)(=O)NC(=O)c1ccc(COc2cc(F)cc(-c3cnc(OCC4CC4)c(Cl)c3)c2)c(F)c1	< 500 nM
CS(=O)(=O)NC(=O)c1ccc(COc2cc(F)cc(-c3ncc(OCC4CCC4)cn3)c2)cc1	< 500 nM

SMILES	IC50
CS(=O)(=O)NC(=O)c1ccc(COc2cc(-c3cccnc3)cc(-c3ccc(OCC4CC4)nc3)c2)cc1	< 500 nM
CNC(=O)c1cc(-c2cccc(OCc3ccc(C(=O)NS(C)(=O)=O)cc3F)c2)ccc1OCC1CC1	< 500 nM
O=C(NS(=O)(=O)c1cccs1)c1ccc(COc2cccc(-c3ccc(OCC4CC4)nc3)c2)cc1	< 500 nM
CS(=O)(=O)NC(=O)c1ccc(COc2cccc(-c3ccc(OCC4CCC(F)(F)CC4)nc3)c2)cc1	< 500 nM
O=C(NS(=O)(=O)C1CC1)c1ccc(COc2cccc(-c3cnc(OCC4CC4)cn3)c2)cc1	< 500 nM
CS(=O)(=O)NC(=O)c1ccc(COc2cccc(-c3ccc(OCC4CC4)cc3)c2)cc1	< 500 nM
CS(=O)(=O)NC(=O)c1ccc(COc2cccc(-c3ccn(CC4CC4)n3)c2)c(F)c1	< 500 nM
Cc1nc(OCC2CCC2)ccc1-c1cc(F)cc(OCc2ccc(C(=O)NS(C)(=O)=O)cc2)c1	< 500 nM
CS(=O)(=O)NC(=O)c1ccc(COc2cccc(-c3ncc(OCC4CC4)cc3F)c2)c(F)c1	< 500 nM
CS(=O)(=O)NC(=O)c1ccc(COc2ccc(Cl)c(-c3ccc(OCC4CC4)nc3)c2)cc1	< 500 nM
CCS(=O)(=O)NC(=O)c1ccc(COc2cc(F)cc(-c3ccc(OCC4CC4)nc3)c2)cc1	< 500 nM
O=C(NS(=O)(=O)C(F)(F)F)c1ccc(COc2cccc(-c3ccc(OCC4CC4)nc3)c2)cc1	< 500 nM
O=C(NS(=O)(=O)C(F)(F)F)c1ccc(COc2cc(F)cc(-c3ccc(OCC4CC4)nc3)c2)cc1	< 500 nM
CS(=O)(=O)NC(=O)c1ccc(COc2cccc(-c3cccnc3OCC3CC3)c2)cc1	< 500 nM
O=C(NS(=O)(=O)c1nccs1)c1ccc(COc2cccc(-c3ccc(OCC4CC4)nc3)c2)cc1	< 500 nM
Cc1nc(OCC2CC2)ccc1-c1cc(OCc2ccc(C(=O)NS(C)(=O)=O)cc2F)ccc1F	< 500 nM
CS(=O)(=O)NC(=O)c1ccc(COc2cccc(-c3ncc(OCC4CC4)cc3F)c2)cc1	< 500 nM
Cc1c(OCC2CC2)ccnc1-c1cccc(OCc2ccc(C(=O)NS(C)(=O)=O)cc2F)c1	< 500 nM
CS(=O)(=O)NC(=O)c1ccc(COc2cc(F)cc(-c3cnc(OCC4CC4)nc3)c2)cc1	< 500 nM
CS(=O)(=O)NC(=O)c1ccc(COc2cc(F)cc(-c3cc(OCC4CC4)ncn3)c2)cc1	< 500 nM

SMILES	IC50
CS(=O)(=O)NC(=O)c1ccc(COc2cc(F)cc(-c3cc(OCC(N)=O)cc(OCC4CC4)c3)c2)c(F)c1	< 500 nM
CS(=O)(=O)NC(=O)c1ccc(COc2cccc(-c3ccc(OCC4CCCC4)nc3)c2)cc1	< 500 nM
O=C(NS(=O)(=O)C1CC1)c1ccc(COc2cc(-c3ccc(OCC4CC4)nc3)ccn2)cc1	< 500 nM
CS(=O)(=O)NC(=O)c1ccc(COc2cc(-c3ccc(OCC4CC4)nc3)ccc2Cl)cc1	< 500 nM
CS(=O)(=O)NC(=O)c1ccc(COc2cc(F)cc(-c3cc(OCCO)cc(OCC4CC4)c3)c2)c(F)c1	< 500 nM
O=C(NS(=O)(=O)c1cccs1)c1ccc(COc2cc(F)cc(-c3ccc(OCC4CC4)nc3)c2)cc1	< 500 nM
CS(=O)(=O)NC(=O)c1ccc(COc2cc(F)cc(-c3cccc(OCC4CC4)n3)c2)cc1	< 500 nM
O=C(NS(=O)(=O)C1CC1)c1ccc(COc2ccc(F)c(-c3ccc(OCC4CC4)nc3)c2)c(F)c1	< 500 nM
O=C(NS(=O)(=O)C1CC1)c1cc(Cl)c(COc2cccc(-c3ccc(OCC4CC4)nc3)c2)cc1F	< 500 nM
O=C(NS(=O)(=O)C1CC1)c1ccc(COc2cccc(-c3ccc(OCC4CCOCC4)nc3)c2)cc1	< 500 nM
CS(=O)(=O)NC(=O)c1ccc(COc2cc(F)cc(-c3ccc(OCC4CC4)nc3)c2)nc1	< 500 nM
Cc1nc(OCC2CC2)ccc1-c1cc(F)cc(OCc2ccc(C(=O)NS(C)(=O)=O)cc2)c1	< 500 nM
O=C(NS(=O)(=O)C1CC1)c1ccc(COc2cc(F)cc(-c3ccc(OCC4CC4)nc3)c2)cc1	< 500 nM
CN(C)C(=O)c1cc(-c2cccc(OCc3ccc(C(=O)NS(C)(=O)=O)cc3F)c2)ccc1OCC1CC1	< 500 nM
COCCOc1cc(OCC2CC2)cc(-c2cc(F)cc(OCc3ccc(C(=O)NS(C)(=O)=O)cc3F)c2)c1	< 500 nM
Cc1cc(OCC2CCC2)cnc1-c1cc(F)cc(OCc2ccc(C(=O)NS(C)(=O)=O)cc2)c1	< 500 nM
CS(=O)(=O)NC(=O)c1ccc(COc2cccc(-c3ncc(OCC4CC4)cc3Cl)c2)cc1	< 500 nM
Cc1cc(-c2cccc(OCc3ccc(C(=O)NS(C)(=O)=O)cc3)c2)cnc1OCC1CC1	< 500 nM
CS(=O)(=O)NC(=O)c1ccc(COc2cc(F)cc(-c3ncc(OCC4CC4)cc3F)c2)cc1	< 500 nM
CS(=O)(=O)NC(=O)c1ccc(COc2cc(F)cc(-c3ccc(OCC4CC4)nc3)c2)cc1	< 500 nM

Results, then the molecule that gave them:

IC50	SMILES
< 500 nM	CS(=O)(=O)NC(=O)c1cc(F)c(COc2cccc(-c3ccc(OCC4CC4)nc3)c2)c(F)c1
< 500 nM	O=C(NS(=O)(=O)C1CC1)c1ccc(COc2cccc(-c3ccc(OCC4CC4)nc3)c2)c(F)c1
< 500 nM	Cc1cc(-c2cccc(OCc3ccc(C(=O)NS(C)(=O)=O)cc3F)c2)cnc1OCC1CC1
< 500 nM	CS(=O)(=O)NC(=O)c1ccc(COc2cc(F)cc(-c3ccc(OCC4CCOC4)nc3)c2)cc1 (configuration not stated)
< 500 nM	CS(=O)(=O)NC(=O)c1ccc(COc2cccc(-c3cncc(OCC4CC4)n3)c2)c(F)c1
< 500 nM	CS(=O)(=O)NC(=O)c1ccc(COc2cccc(-c3ccc(OCC4CCOCC4)nc3)c2)cc1
< 500 nM	O=C(NS(=O)(=O)CC1CC1)c1ccc(COc2cccc(-c3ccc(OCC4CC4)nc3)c2)c(F)c1
< 500 nM	Cc1cc(OCc2ccc(C(=O)NS(C)(=O)=O)cc2F)cc(-c2ccc(OCC3CC3)nc2)c1
< 500 nM	CS(=O)(=O)NC(=O)c1ccc(COc2cccc(-c3cc(OCC4CC4)ncn3)c2)c(F)c1
< 500 nM	CS(=O)(=O)NC(=O)c1ccc(COc2cccc(-c3ccc(OCC4CCOC4)nc3)c2)c(F)c1 (configuration not stated)
< 500 nM	O=C(NS(=O)(=O)c1nccs1)c1ccc(COc2cccc(-c3ccc(OCC4CC4)nc3)c2)c(F)c1
< 500 nM	CS(=O)(=O)NC(=O)c1ccc(COc2cccc(-c3ccc(OCC4CC4)cn3)c2)c(F)c1
< 500 nM	CS(=O)(=O)NC(=O)c1ccc(COc2cccc(-c3cnc(OCC4CCC4)c(CO)c3)c2)c(F)c1
< 500 nM	O=C(NS(=O)(=O)c1cccs1)c1ccc(COc2cccc(-c3ccc(OCC4CC4)nc3)c2)c(F)c1
< 500 nM	CS(=O)(=O)NC(=O)c1ccc(COc2cccc(-c3ccc(OCC4CCOCC4)nc3)c2)c(F)c1
< 500 nM	CS(=O)(=O)NC(=O)c1ccc(COc2ccc(F)c(-c3ccc(OCC4CC4)nc3)c2)c(F)c1
< 500 nM	CS(=O)(=O)NC(=O)c1ccc(COc2cccc(-c3cnc(OCC4CC4)c(Cl)c3)c2)c(F)c1
< 500 nM	CS(=O)(=O)NC(=O)c1ccc(COc2cccc(-c3ccnc(OCC4CC4)c3)c2)c(F)c1
< 500 nM	CS(=O)(=O)NC(=O)c1ccc(COc2cccc(-c3ccc(OCC4CCC4)nc3)c2)nc1
< 500 nM	COc1cc(C(=O)NS(C)(=O)=O)ccc1COc1cccc(-c2ccc(OCC3CC3)nc2)c1
< 500 nM	CCS(=O)(=O)NC(=O)c1ccc(COc2cccc(-c3ccc(OCC4CC4)nc3)c2)c(F)c1
< 500 nM	CS(=O)(=O)NC(=O)c1ccc(COc2ccc(Cl)c(-c3ccc(OCC4CC4)nc3)c2)c(F)c1
< 500 nM	CS(=O)(=O)NC(=O)c1ccc(COc2cccc(-c3ccc(OCC4CC4)nc3)c2)cc1F
< 500 nM	CS(=O)(=O)NC(=O)c1ccc(COc2cccc(-c3ccc(OCC4CCC4)nc3CO)c2)c(F)c1
< 500 nM	CC(C)(C)OC(=O)N1CC(COc2ccc(-c3cccc(OCc4ccc(C(=O)NS(C)(=O)=O)cc4F)c3)cn2)C1
< 500 nM	CS(=O)(=O)NC(=O)c1ccc(COc2cccc(-c3cnc(OCC4CC4)cn3)c2)c(F)c1
< 500 nM	Cc1ccc(OCc2ccc(C(=O)NS(C)(=O)=O)cc2F)cc1-c1ccc(OCC2CC2)nc1
